Source: ChEMBL document CHEMBL1811816, “Asperaculin A, a sesquiterpenoid from a marine-derived fungus, Aspergillus aculeatus” (J Nat Prod, 2011)
Activity calls are given as the source filed them.

Tests used:
Assay type in all cases: functional, cell-based
MOLT-3 = test: Cytotoxicity against human MOLT3 cells at 50 ug/mL after 72 hrs by XTT assay
HepG2 = test: Cytotoxicity against human HepG2 cells at 50 ug/mL after 72 hrs by MTT assay
HuCC-A1 = test: Cytotoxicity against human HuCCa1 cells at 50 ug/mL after 72 hrs by MTT assay
A549 = test: Cytotoxicity against human A549 cells at 50 ug/mL after 72 hrs by MTT assay

Measured: Activity

CC1(C)C[C@]2(C)COC(=O)[C@H]3OC(=O)[C@]4(O)CC[C@@H]1C324 (some centres undefined)
inactive: MOLT-3 | HepG2 | HuCC-A1 | A549
